Experimental data: patent publication US20230092001A1, “FURANEOL GLYCOSIDE COMPOUND, PHARMACEUTICAL COMPOSITION THEREOF, PREPARATION METHOD THEREFOR, AND APPLICATION THEREOF” (priority 2019, published 2023)

Tests used:
[1] = tested on: ulcerative colitis model (dextran sodium sulphate); assay: Effect Example 3: therapeutic effect on ulcerative colitis, dextran sodium sulphate model, oral gavage, 7 days; format: in vivo, C57 mice; settings: 40 mg/kg oral gavage; for Average colon length of mice: day 7
Protocol: Fifty 10-week-old male C57 mice, SPF class animal house, temperature 20-26° C., humidity 40%-70%, alternating light-dark periods (12 h/12 h).
(§1) Quarantine-qualified animals with similar weights were selected for the experiment.
Mice in the blank control group were given normal drinking water throughout the experiment. The other 9 groups of mice were given drinking water containing 2% dextran sodium sulphate from day 1 to day 7. All groups were administered by oral gavage once a day according to table 10, until the end of the experiment.
(§2) (1) The mice were weighed daily.
(2) Blood samples were collected from the orbital vein on day 7 and stored at −80° C.
(3) On day 7, the mice were sacrificed by cervical vertebra dislocation, the colon was removed and a small amount of fecal was taken from the colon and left as a sample. The colon length and colon weight were measured. A portion of the colon and the fecal sample was stored at −80° C.

[2] = tested on: ulcerative colitis model (dextran sodium sulphate); assay: Effect example 2: therapeutic effect on ulcerative colitis, dextran sodium sulphate model, oral gavage, 14 days; format: in vivo, C57 mice; settings: for Average weight of mice / Average colon length of mice: treatment group 40 mg/kg oral gavage; for Average colon length of mice: day 14
Protocol: Thirty-five 10-week-old male C57 mice, SPF class animal house, temperature 20-26° C., humidity 40%-70%, alternating light-dark periods (12 h/12 h).
as §1
Mice in the blank control group were given normal drinking water throughout the experiment. The other 6 groups of mice were given drinking water containing 2% dextran sodium sulphate from day 1 to day 5, normal drinking water from day 6 to day 7, drinking water containing 2% dextran sodium sulphate from day 8 to day 12, and normal drinking water from day 13 to day 14. The experiment ended on day 14. All groups were administered by oral gavage once a day according to table 7, until the end of the experiment on day 14.
as §2
(2) Blood samples were collected from the orbital vein on day 14 and stored at −80° C.
(3) On day 14, the mice were sacrificed by cervical vertebra dislocation, the colon was removed and a small amount of fecal was taken from the colon and left as a sample. The colon length and colon weight were measured. A portion of the colon and the fecal sample was stored at −80° C.

CC(=O)OC[C@H]1O[C@@H](OC2=C(C)OC(=C3CCCC3)C2=O)[C@H](OC(C)=O)[C@@H](OC(C)=O)[C@@H]1OC(C)=O [Compound I-8]
Effect on the colon length (in words) [1]: can gradually restore the colon length | Average weight of mice ([1]; Day 1): 21.85 g | Average weight of mice ([1]; Day 2): 21.97 g | Average weight of mice ([1]; Day 3): 21.77 g | Average weight of mice ([1]; Day 4): 21.33 g | Average weight of mice ([1]; Day 5): 20.62 g | Average weight of mice ([1]; Day 6): 20.52 g | Average weight of mice ([1]; Day 7): 20.32 g | Average colon length of mice [1]: 6.1 cm

CC(=O)OC[C@H]1O[C@@H](OC2=C(C)OC(=C3CCN(C(C)=O)CC3)C2=O)[C@H](OC(C)=O)[C@@H](OC(C)=O)[C@@H]1OC(C)=O [Compound I-12]
Average weight of mice ([1]; Day 1): 21.25 g | Average weight of mice ([1]; Day 2): 21.22 g | Average weight of mice ([1]; Day 3): 21.13 g | Average weight of mice ([1]; Day 4): 20.62 g | Average weight of mice ([1]; Day 5): 20.10 g | Average weight of mice ([1]; Day 6): 16.32 g | Average weight of mice ([1]; Day 7): 18.88 g | Average colon length of mice [1]: 5.7 cm

CC(=O)OC[C@H]1O[C@@H](OC2=C(C)OC(=C3CCOCC3)C2=O)[C@H](OC(C)=O)[C@@H](OC(C)=O)[C@@H]1OC(C)=O [Compound I-10]
Average weight of mice ([1]; Day 1): 21.95 g | Average weight of mice ([1]; Day 2): 21.60 g | Average weight of mice ([1]; Day 3): 21.18 g | Average weight of mice ([1]; Day 4): 21.27 g | Average weight of mice ([1]; Day 5): 20.90 g | Average weight of mice ([1]; Day 6): 20.13 g | Average weight of mice ([1]; Day 7): 19.25 g | Average colon length of mice [1]: 5.8 cm

COC(=O)[C@H]1O[C@@H](OC2=C(C)OC(=C(C)C)C2=O)[C@H](OC(C)=O)[C@@H](OC(C)=O)[C@@H]1OC(C)=O [Compound I-5]
Weight effect compared with the positive control drug SASP (in words) ([2]; 40 mg/kg oral gavage vs SASP 30 mg/kg oral gavage): better than the positive control drug | Effect on the reduction of weight in mice (in words) ([2]; 40 mg/kg oral gavage, vs ulcerative colitis model group): significant improvement in the reduction of weight in mice | Average weight of mice ([2]; Day 1): 26.9 g | Average weight of mice ([2]; Day 2): 26.92 g | Average weight of mice ([2]; Day 3): 26.88 g | Average weight of mice ([2]; Day 4): 26.9 g | Average weight of mice ([2]; Day 5): 26.58 g | Average weight of mice ([2]; Day 6): 26.32 g | Average weight of mice ([2]; Day 7): 25.3 g | Average weight of mice ([2]; Day 8): 23.6 g | Average weight of mice ([2]; Day 9): 23.24 g | Average weight of mice ([2]; Day 10): 23.24 g | Average weight of mice ([2]; Day 11): 24.2 g | Average weight of mice ([2]; Day 12): 24.48 g | Average weight of mice ([2]; Day 13): 24.5 g | Average weight of mice ([2]; Day 14): 24.68 g | Average colon length of mice [2]: 6.0 cm

CC(=O)OC[C@H]1O[C@@H](OC2=C(C)OC(=C3CCNCC3)C2=O)[C@H](OC(C)=O)[C@@H](OC(C)=O)[C@@H]1OC(C)=O [Compound I-11]
Effect on the colon length (in words) [1]: can gradually restore the colon length | Average weight of mice ([1]; Day 1): 21.62 g | Average weight of mice ([1]; Day 2): 21.30 g | Average weight of mice ([1]; Day 3): 21.10 g | Average weight of mice ([1]; Day 4): 20.97 g | Average weight of mice ([1]; Day 5): 20.32 g | Average weight of mice ([1]; Day 6): 19.93 g | Average weight of mice ([1]; Day 7): 19.30 g | Average colon length of mice [1]: 6.2 cm

CC(=O)OC[C@H]1O[C@@H](OC2=C(C)OC(=C(C)C)C2=O)[C@H](OC(C)=O)[C@@H](OC(C)=O)[C@@H]1OC(C)=O [Compound I-2, 4-O-[(2,3,4,6-tetra-O-acetyl)-β-D-glucosyl]-5-methyl-2-(1-methylethylidene)-3(2H)-furanone]
Average weight of mice ([2]; Day 1): 26.86 g | Average weight of mice ([2]; Day 2): 26.9 g | Average weight of mice ([2]; Day 3): 26.82 g | Average weight of mice ([2]; Day 4): 26.86 g | Average weight of mice ([2]; Day 5): 26.58 g | Average weight of mice ([2]; Day 6): 26.48 g | Average weight of mice ([2]; Day 7): 25.18 g | Average weight of mice ([2]; Day 8): 23.78 g | Average weight of mice ([2]; Day 9): 23.64 g | Average weight of mice ([2]; Day 10): 23.64 g | Average weight of mice ([2]; Day 11): 24.72 g | Average weight of mice ([2]; Day 12): 24.82 g | Average weight of mice ([2]; Day 13): 24.8 g | Average weight of mice ([2]; Day 14): 24.92 g | Average colon length of mice [2]: 6.2 cm | Average weight of mice ([1]; Day 1): 21.53 g | Average weight of mice ([1]; Day 2): 21.42 g | Average weight of mice ([1]; Day 3): 21.25 g | Average weight of mice ([1]; Day 4): 20.97 g | Average weight of mice ([1]; Day 5): 20.72 g | Average weight of mice ([1]; Day 6): 20.27 g | Average weight of mice ([1]; Day 7): 19.27 g | Average colon length of mice [1]: 5.8 cm

CCOC(=O)OC[C@H]1O[C@@H](OC2=C(C)OC(=C(C)C)C2=O)[C@H](O)[C@@H](O)[C@@H]1O [Compound I-7]
Average weight of mice ([1]; Day 1): 21.47 g | Average weight of mice ([1]; Day 2): 21.62 g | Average weight of mice ([1]; Day 3): 21.18 g | Average weight of mice ([1]; Day 4): 20.82 g | Average weight of mice ([1]; Day 5): 20.13 g | Average weight of mice ([1]; Day 6): 20.07 g | Average weight of mice ([1]; Day 7): 19.88 g | Average colon length of mice [1]: 5.4 cm

CC(=O)OC[C@H]1O[C@@H](OC2=C(C)OC(=C3CCCCC3)C2=O)[C@H](OC(C)=O)[C@@H](OC(C)=O)[C@@H]1OC(C)=O [Compound I-9]
Effect on the colon length (in words) [1]: can gradually restore the colon length | Average weight of mice ([1]; Day 1): 21.20 g | Average weight of mice ([1]; Day 2): 21.17 g | Average weight of mice ([1]; Day 3): 20.92 g | Average weight of mice ([1]; Day 4): 20.47 g | Average weight of mice ([1]; Day 5): 20.03 g | Average weight of mice ([1]; Day 6): 19.42 g | Average weight of mice ([1]; Day 7): 19.38 g | Average colon length of mice [1]: 6.3 cm
